# Counter-ions that a name gives are not always drawn.
# Tested on: Neonatal calvaria (hPTH (1-34)-treated)
# Experiment: Inhibition of hPTH (1-34)-stimulated bone resorption in cultured neonatal rat calvaria (calcium accumulation in medium at 6 days)
# Assay type: cell-based, rat (Wistar)
# Settings: 144 h, hPTH (1-34) 1×10^-8 M, 37° C.; for inhibition at 1 µM: Dose 1 × 10^-6 M; for inhibition at 0.1 µM: Dose 1 × 10^-7 M
# Procedure: Neonatal calvaria were dissected aseptically from 1-2 day old rat (Wistar), washed in Dulbecco's modified eagle's medium and divided along the sagittal suture. The calvaria halves were pooled and randomized in the different groups. The calvaria halves were cultured separately as free-floating bones in multi-well dishes containing a 2 ml of Dulbecco's modified eagle's medium, with 10% heat-inactivated (56° C. for 1 hr) fetal calf serum. Treatment of hPTH (1-34) (1×10^-8 M) and the Test Compound (1×10^-7 or 1×10^-6 M) was begun at zero time. All incubations were performed at 37° C., under an atmosphere of 95% air and 5% CO2 for 6 days. Bone resporption was determined by measuring the accumulation of calcium in the medium at 6 days. The concentration of total calcium in culture medium was measured by OCPC method with a spectrophotometer (Hitachi model U-3200, Tokyo, Japan).
# As comparative data, similar tests were conducted using culture medium with hPTH (1×10^-8 M) only, and culture medium without both hPTH and Test Compound.
# Test results were represented in terms of percentage of inhibition calculated by the following formula: [formula] CD : the concentration of total calcium in culture medium treated with both hPTH and Test Compound
# CO : the concentration of total calcium in control culture medium without both hPTH and Test Compound
# CP : the concentration of total calcium in culture medium treated with hPTH only
Compound,inhibition at 1 µM,inhibition at 0.1 µM
"O=P(O)(O)C(C(=S)Nc1ccccc1)P(=O)(O)O [Test Compound (a), Tris(tert-butylamine) salt of [N-(phenyl)thiocarbamoylmethylene]bis(phosphonic acid)]",66.3%,54.3%
"O=C(Nc1ccc(Cl)cc1)C(P(=O)(O)O)P(=O)(O)O [Test Compound (b), Tris(tert-butylamine) salt of [N-(4-chlorophenyl)carbamoylmethylene]bis(phosphonic acid)]",56.9%,46.6%
"O=P(O)(O)C(C(=S)Nc1ccc(Cl)cc1)P(=O)(O)O [Test Compound (c), Tris(tert-butylamine)salt of [N-(4-chlorophenyl)thiocarbamoylmethylene]bis(phosphonic acid)]",57%,
"O=P(O)(O)C(C(=S)Nc1cc2ccccc2s1)P(=O)(O)O [Test Compound (d), Disodium salt of [N-(2-benzo[b]thienyl)thiocarbamoylmethylene]bis(phosphonic acid)]",59.7%,
"O=P(O)(O)C(C(=S)Nc1ccc(C(F)(F)F)cc1)P(=O)(O)O [Test Compound (e), Disodium salt of [N-(4-trifluoromethylphenyl)thiocarbamoylmethylene]bis(phosphonic acid)]",65.9%,
"O=P(O)(O)C(C(=S)Nc1cccc(C(F)(F)F)c1)P(=O)(O)O [Test Compound (f), Disodium salt of [N-(3-trifluoromethylphenyl)thiocarbamoylmethylene]bis(phosphonic acid)]",68.9%,
"O=P(O)(O)C(C(=S)Nc1ccc(Cl)c(C(F)(F)F)c1)P(=O)(O)O [Test Compound (g), Disodium salt of [N-(4-chloro-3-trifluoromethylphenyl)thiocarbamoylmethylene]bis(phosphonicacid)]",112%,
"COc1ccc(NC(=S)C(P(=O)(O)O)P(=O)(O)O)cc1C(F)(F)F [Test Compound (h), Disodium salt of [N-(4-methoxy-3-trifluoromethylphenyl)thiocarbamoylmethylene]bis(phosphonic acid)]",77.7%,
"O=C(NC(P(=O)(O)O)P(=O)(O)O)c1cc2ccccc2s1 [Test Compound (i), Bis(tert-butylamine)salt of [(2-benzo[b]thiophenecarboxamido)methylene]bis(phosphonic acid)]",,45%
"O=C(NC(P(=O)(O)O)P(=O)(O)O)c1ccc2ccccc2n1 [Test Compound (j), Tris(tert-butylamine)salt of [(2-quinolinecarboxamido)methylene]bis(phosphonic acid)]",53.8%,46.9%
"O=P(O)(O)C(NS(=O)(=O)c1ccc(Cl)cc1)P(=O)(O)O [Test Compound (k), Disodium salt of [(4-chlorophenyl)sulfonylaminomethylene]bis(phosphonicacid)]",71%,
"CS(=O)(=O)Nc1cccc(NC(=S)C(P(=O)(O)O)P(=O)(O)O)c1 [Test Compound (l), Disodium salt of [N-(3-mesylaminophenyl)thiocarbamoylmethylene]bis(phosphonic acid)]",52.4%,
